According to patent US12023345B2, “Compositions and methods for treating lysosomal disorders” (RUSH UNIVERSITY MEDICAL CENTER, priority 2014, dated 2024):

Assays:
Tfeb [1] = assay: TFEB immunocytochemistry in mouse primary astrocytes and neurons; assay type: cell-based; conditions: 5 μM aspirin, 12 h
Procedure: Isolation of Primary Mouse Astroglia: Astroglia were isolated from mixed glial cultures as described (24, 25) according to the procedure of Giulian and Baker (26). Briefly, on day 9, the mixed glial cultures were washed three times with Dulbecco's modified Eagle's medium/F-12 and subjected to shaking at 240 rpm for 2 h at 37° C. on a rotary shaker to remove microglia. After 2 days, the shaking was repeated for 24 h for the removal of oligodendroglia and to ensure the complete removal of all nonastroglial cells. The attached cells were seeded onto new plates for further studies.
Isolation of Primary Mouse Neurons: Fetal (E18-E16) mouse neurons were prepared as previously described (27) with modifications. Whole brains were removed and the cells were washed by centrifugation three times at 1200 rpm for 10 min, the pellet dissociated and the cells plated at 10% confluence in 8-well chamber slides pre-treated for >2 hr with Poly-D-Lysine (Sigma, St. Louis, MO). After 4 min, the non-adherent cell suspension was aspirated and […] complete Neurobasal media (Invitrogen) supplemented with 2% B27 was added to each well. The cells were incubated for 4 days prior to experimentation. […] The cells were stimulated with gemfibrozil in Neurobasal media supplemented with 2% B27 minus antioxidants (Invitrogen) for 24 hr prior to methanol fixation and immunostaining.
Immunostaining of Cells: Immunocytochemistry was performed as described earlier (29). Briefly, 8 well chamber slides containing mouse primary astrocytes, mouse neurons were cultured to 70-80% confluence were fixed with chilled Methanol (Fisher Scientific, Waltham, MA) overnight, followed by two brief rinses with filtered PBS. […] The samples were run in an EtOH and Xylene (Fisher) gradient, mounted, and observed under Olympus BX41 fluorescence microscope.

Tfeb [2] = assay: TFEB protein by immunoblot in mouse primary astrocytes; assay type: cell-based; conditions: aspirin 2 and 5 μM, 12 h, serum-free
Procedure: Isolation of Primary Mouse Astroglia: Astroglia were isolated from mixed glial cultures as described (24, 25) according to the procedure of Giulian and Baker (26). Briefly, on day 9, the mixed glial cultures were washed three times with Dulbecco's modified Eagle's medium/F-12 and subjected to shaking at 240 rpm for 2 h at 37° C. on a rotary shaker to remove microglia. After 2 days, the shaking was repeated for 24 h for the removal of oligodendroglia and to ensure the complete removal of all nonastroglial cells. The attached cells were seeded onto new plates for further studies. Immunoblotting: Western blotting was conducted as described earlier (31, 32) with modifications. Briefly, cells were scraped in 1× RIPA buffer, protein was measured using Bradford reagent and sodium dodecyl sulfate (SDS) buffer was added and electrophoresed on NuPAGE® Novex® 4-12% Bis-Tris gels (Invitrogen) and proteins transferred onto a nitrocellulose membrane (Bio-Rad) using the Thermo-Pierce Fast Semi-Dry Blotter. The membrane was then washed for 15 min in TBS plus Tween 20 (TBST) and blocked for 1 hr in TBST containing BSA. […] Densitometric Analysis: Protein blots were analyzed using ImageJ (NIH, Bethesda, Md.) and bands were normalized to their respective β-actin loading controls. […]

[3] = at high doses; cited from earlier work
mouse primary astrocytes = assay: LysoTracker staining of mouse primary astrocytes (lysosomal biogenesis); assay type: cell-based; conditions: 24 h
Procedure: [The procedure below names another cell line; the source lists this cell line under the same test.] LysoTracker Staining: Fibroblasts cultured to 70-80% confluence were subjected to different stimuli under reduced serum (2%) DMEM medium followed by incubation with 75 nM LysoTracker Red DND99 (Invitrogen) for 45 mins. Cells were then washed thoroughly with filtered PBS and mounted on glass slides and viewed under BX41 fluorescence microscope

SMILES: CC(=O)Oc1ccccc1C(=O)O [aspirin]
- TFEB expression (immunofluorescence) (Tfeb [1]; PPARα (−/−) astrocytes): not PPARα (−/−)
- TFEB expression (immunofluorescence) (Tfeb [1]; PPARβ (−/−) astrocytes): induced the expression of TFEB
- TFEB expression (immunofluorescence) (Tfeb [1]; WT astrocytes): induced the expression of TFEB
- TFEB protein level (Western blot) (Tfeb [2]): able to increase the protein level of TFEB
- toxic effects [3]: gastric ulcers, stomach bleeding, and tinnitus
- lysosomal biogenesis (lyso-tracker staining) (mouse primary astrocytes; PPARα (−/−) astrocytes, 5 μM aspirin): not PPARα (−/−)
- lysosomal biogenesis (lyso-tracker staining) (mouse primary astrocytes; PPARβ (−/−) astrocytes, 5 μM aspirin): increased lysosomal biogenesis
- lysosomal biogenesis (lyso-tracker staining) (mouse primary astrocytes; WT astrocytes, 5 μM aspirin): increased lysosomal biogenesis
- lysosomal biogenesis (lyso-tracker staining) (mouse primary astrocytes; astrocytes, aspirin 10 μM, serum-free): not very potent in increasing lysosomal biogenesis
- lysosomal biogenesis (lyso-tracker staining) (mouse primary astrocytes; astrocytes, aspirin 2 and 5 μM, serum-free): markedly increased lysosomal biogenesis
